Source: US20090134028A1, “Method of Estimating Effect of Test Chemical on Living Organisms” (Chemicals Evaluation and Research Institute, priority 2005, published 2009)

Assays:
[1] = Prediction of liver cell hypertrophy using SVM from post-translational modification data; parameters: species or system rat
[2] = system: rat liver protein; experiment: Two-dimensional gel electrophoresis of liver proteins after 28-day oral administration: difference of log2(αx/αc) between spots derived from one protein; assay type: in vivo; details: oral 28 days
Protocol: 5-Weeks old male rats (F344, SPF strain) obtained from Charles River Laboratories Japan Inc. were divided into groups each consisting of three rats. To the rats of each chemical dosed group was forcibly administered orally a solution obtained by dissolving one of the chemicals shown in Tables 1 to 3, and to the rats of a vehicle control group was forcibly administered orally only a vehicle. The administration was conducted once a day for 28 days. On the 29th day from the start of administration, the liver of each rat was collected. A fragment was cut out from each liver and stored at −20° C. The protein collected from each rat was determined quantitatively by the Bradford method. Then, to the comparative sample collected from the chemical dosed group, the control sample collected from the vehicle control group, and a pool sample (which was a mixture of the comparative sample and the control sample) were added, at 0° C., Cy5, Cy3 and Cy2 (DMF solution, 1 ml) each of 200 pmol per […] of protein, and a labeling reaction was allowed to take place on ice for 30 minutes. After the completion of the reaction, an excessive amount of a Lysine solution (10 mM Lysis buffer solution, 1 ml) was added, followed by storage for 10 minutes to complete the reaction. Further, a x2 sample buffer [8 M urea, 4% (w/v) CHAPS, 20 mg/ml DTT, 2% (v/v) Pharmalytes] of same volume was added, followed by storage on ice for 10 minutes.
Then, the mixture of the resulting samples or each resulting sample was individually subjected to two-dimensional gel electrophoresis.
First-dimensional electrophoresis was conducted in Multiphor II (GE Helthcare Uk Ltd. Buckinghamshire, UK) using IPG (Immobilized pH Gradient) Strips (24 cm, pI3-10L) (GE Helthcare UK Ltd. Buckinghamshire, UK). A sample ([…] of protein) was added from a cup loading holder. Focussing was conducted by 40 kVh in total. After the electrophoresis, equilibration was made for 10 minutes each using a solution A obtained by adding 0.25% (w/v) of DTT to an equilibrating solution (50 mM Tris, pH 8.8, 6 M urea, 30% glycerol, 2% SDS) and a solution B obtained by adding 4.5% (w/v) of iodoacetamide to the equilibrating solution. Successively, second-dimensional electrophoresis was conducted in an Ettan DALT II system (GE Helthcare UK Ltd. Buckinghamshire, UK) using a self-made 12% uniform gel sandwiched between low-fluorescent glasses. Migration was conducted at 3 W (15° C.) overnight.
For each gel after migration, image capture was immediately conducted using Master Imager (GE Helthcare UK Ltd. Buckinghamshire, UK), at a wavelength corresponding to each Cy. The excitation wavelengths of Cy5, Cy3 and Cy2 were set at 625 nm, 480 nm and 425 nm, respectively, and their fluorescence wavelengths were set at 680 nm, 540 nm and 480 nm, respectively.
In the case of the sample obtained by mixing before electrophoresis, the recognition of spots of captured image and the quantitative determination and comparison between Cys in one gel were conducted using Decyder-DIA Soft (GE Helthcare UK Ltd. Buckinghamshire, UK). The matching of spots with the reference map of rat liver protein (2-D data base formed in-house by identifying rat liver 724 spots) was conducted using Decyder-BVA soft (GE Helthcare UK Ltd. Buckinghamshire, UK). When each sample after Cy labeling was independently subjected to electrophoresis, the quantitative determination of each spot and the matching of spots were conducted using PDQuest (Bio-Rad Laboratories, Inc.).
For the spots of the 127 proteins and their modified proteins, there was calculated a base 2 logarithm [log2(αx/αc)] of the ratio (αx/αc) of the expression amount (αx) of the comparative sample and the expression amount (αc) of the control sample. Then, a difference in logarithms was calculated between spots derived from one protein. The calculation of difference in logarithms was made for all combinations of spots derived from one protein. […]

[3] = system: liver cell; details: rat, in vivo
[4] = in vivo; cited from earlier work

In the case of O=NN1CCOCC1 [N-nitrosomorpholine], the Prediction result [1] is reported as −1 CORRECT, the “Difference of log2(αx/αc)” value ([2]; ATP synthase alpha chain, spots 1064-1096, absolute value) is reported as 1.824 and the “Difference of log2(αx/αc)” value ([2]; Carbonate dehydrogenase III, spots 2098-2113, absolute value) is reported as 1.038. The “Difference of log2(αx/αc)” value ([2]; Cytoskeleton I type keratin-19, spots 1174-1447, absolute value) was 1.451, the “Difference of log2(αx/αc)” value ([2]; Cytoskeleton II type keratin-8, spots 1068-1481, absolute value) was 1.344 and the “Difference of log2(αx/αc)” value ([2]; Heat shock protein 60 kDa, spots 941-974, absolute value) was 1.910. The “Difference of log2(αx/αc)” value ([2]; Hydroxyglutaryl-CoA synthase, spots 1215-1216, absolute value) was 0.948, the “Difference of log2(αx/αc)” value ([2]; MAWD binding protein, spots 2032-2036, absolute value) was 1.256 and the “Difference of log2(αx/αc)” value ([2]; Non-muscle type caldesmon, spots 628-654, absolute value) was 1.618. The “Difference of log2(αx/αc)” value ([2]; RIKEN cDNA 0610010D20, spots 1708-1753, absolute value) was 1.349, the “Difference of log2(αx/αc)” value ([2]; Transketorase, spots 789-813, absolute value) was 1.074 and the “Finding of hepatocyte hypertrpy” value [3] was “−”. For the same compound, the “pathology of liver cell hypertrophy in the liver” value [3] was “no pathology of liver cell hypertrophy was seen” and the Carcinogenicity [4] was “+”.
